Tests used:
[1] = tested on: Rat pheochromocytoma cells transfected with M1 mAChR; format: cell-based; conditions: β-A25-35 (10 & 20 μM)
Procedure: Confluent rat pheochromocytoma cells transfected with the M1 mAChR cultures were detached with trypsin, washed and plated in 24-well, 6-well, 60-mm or 100-mm plates that were precoated with rat tail collagen (Sigma, Israel). Several experiments were performed in serum-free medium. For 3-(4,5-dimethylthiazol-2-yl)-2,5-diphenyl-tetrazolium bromide (MTT) assay, cells (1.5×10^4) were plated in 96-well collagen-precoated plates, in serum-free medium, with or without various drugs for 24 hours. For differentiation, cells were grown in the presence of 1% FCS and 1% HS, with addition of 50 ng/ml NGF for 7 days, to cause full differentiation. […] After 7 days, cells were washed and the medium was either replaced to serum-free, or cells were detached and replated in serum-free medium. Cells in serum-free medium were treated either with Aβ peptides that were previously “aged” or with H2O2. Tested compounds were added together with the insults for the indicated time, unless otherwise stated.
Cells were plated in 96-well plates in 100 μl medium. After exposure to various treatments, 10 μl of 5 mg/ml MTT [3-(4,5-dimethylthiazol-2-yl)-2,5-diphenyl-tetrazolium bromide; Sigma, Israel] solution in phosphate-buffered saline (PBS) was added to each well. Plates were incubated for 2 hrs at 37° C. followed by hydrocholoric acid-isopropanol addition (100 μl of 0.04N HCl/isopropanol). Plates were read using ELISA reader at a wavelength of 570 nm.
The MTT assay measures primary early changes within the cells, reflecting the integrity of the electron transport chain and provides a readout of cellular redox activity. This test is a specific, early indicator of the mechanism of β-amyloid-mediated cell death and can be used to detect rapid inhibitory response.

[2] = tested on: C57BL/10SnJ (B10) mice; assay: Morris water maze in small hippocampus mice; format: in vivo; conditions: for Training, escape latency: 0.5 and 1 mg/kg i.p. (rivastigmine, nicotine 1 mg/kg); for Training, path length: AF150(S) both doses, AF267B the higher dose; for Reversal test, escape latency / Training, swimming speed / Transfer test, spatial bias: mouse, in vivo
Procedure: C57BL/10SnJ (B10) mice were selected due to their small hippocampi and decreased number of hippocampal pyramidal neurons; the cell loss seemed to be associated with poor spatial learning.
(§1) Each group of mice was randomly divided into 7 treatment groups (n=12-14/group). […] All tested compounds and saline were administered once a day for 4 days before starting the behavioral testing, and then for the duration of the 5-day experiment, 30 minutes before testing.
(§2) Training: Each mouse was trained for four consecutive days, four trials (one block) per day, in which the platform position remained constant and was located in the center of the southeast quadrant of the pool. Within each block of four trials, each mouse started at each of the starting locations, but the sequence of locations was randomly selected. A trial consisted of placing a mouse by hand into the water facing the wall of the pool at one of four starting locations, north, south, east or west, around the pool's perimeter. Escape latency (the time to find the platform), path length (the distance traveled by the mouse) and speed (the swimming rate of the mouse) were recorded on each trial by the monitoring system.
(§3) For each mouse, the path length, escape latency, and swimming speed of the four trials on each of the 4 training days were grouped into blocks (one block for each day). […] Specific comparisons were performed, using the simple main effects contrasts acalysis, which is specifically suited for testing significant interactions.
(§4) Transfer test. During trial No. 17, on the fourth day, the platform was entirely removed from the pool (a probe trial). In this trial, the mouse was placed into the water for a limited period (30 s), and its spatial bias was measured by recording the relative distribution of escape latency and path length over the four quadrants of the pool.
(§5) Reversal test. During trials 18–21, on the fifth day, the platform position was changed to the northwest quadrant, opposite to the training quadrant. Thus, during reversal learning, the platform location was moved relative to the configuration of objects within the room, but the pool occupied the same place within the room throughout the entire experiment. Testing of the rats and measures taken were the same as in training.
(§6) For each mouse, the escape latency, path length and swimming speed of the reversal test (trials No. 18–21) were grouped into one block.

[3] = tested on: C57BL6J mice; assay: Morris water maze in normal hippocampus mice; format: in vivo; conditions: for Reversal test, escape latency: AF150(S) 0.5 mg/kg; for Training, path length: AF150(S) only the higher dose; for Reversal test, swimming speed: AF150(S)-0.5 mg/kg, AF267B-1 mg/kg, rivastigmine, nicotine; for Training, swimming speed: mouse, in vivo
Procedure: as §1, §2, §3, §4, §5, §6

[4] = tested on: Rat pheochromocytoma cells transfected with M1 mAChR; assay: Neurite outgrowth response; format: cell-based; conditions: blocked by atropine
Procedure: Rat pheochromocytoma cells transfected with M1 mAChR cells were grown as described in Gurwitz et al, (NeuroReport 6, 485,1995). For determination of neurite outgrowth, cells plated in six-well plates were used 3–5 days after-plating. Growth factors were added 1 day after plating and muscarinic agonists were added for the last 24 hrs.
Cells were observed under an inverted microscope. The percent of cells with neurite longer than cell diameter were scored in three random fields of several hundred cells from each well. Results were expressed as a percent of cells with neurites. Treatments were performed in triplicate cells. Both NGF (50 ng/ml) and EGF (100 ng/ml) were added 1 day after plating. Muscarinic agonists were added 24 hours before scoring.

[5] = molecular target: T1, M1 mAChR (Rattus norvegicus, UniProt P08482); assay: α-APPs secretion in cell cultures stably transfected with the M1 mAChR; format: cell-based; conditions: for Emax: read-out: APPs levels, % of maximal effect of carbachol, at 100 μm
T1 construct: expressed in transfected cells; elsewhere rat pheochromocytoma cells
T1 sequence (P08482 1-460): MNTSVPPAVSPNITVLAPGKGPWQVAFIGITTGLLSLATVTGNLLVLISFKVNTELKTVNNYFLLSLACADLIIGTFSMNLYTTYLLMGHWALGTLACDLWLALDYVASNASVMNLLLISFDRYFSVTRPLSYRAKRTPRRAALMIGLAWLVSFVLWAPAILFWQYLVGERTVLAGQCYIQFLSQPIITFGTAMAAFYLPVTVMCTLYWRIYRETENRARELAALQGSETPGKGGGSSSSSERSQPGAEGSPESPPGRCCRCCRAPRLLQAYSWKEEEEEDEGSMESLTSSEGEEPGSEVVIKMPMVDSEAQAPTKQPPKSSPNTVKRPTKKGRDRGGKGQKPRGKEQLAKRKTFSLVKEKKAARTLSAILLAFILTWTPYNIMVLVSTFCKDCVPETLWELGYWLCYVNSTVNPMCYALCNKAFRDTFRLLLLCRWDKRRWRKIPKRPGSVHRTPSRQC
Procedure: Cells were plated in 6 well culture plates and used at the age of 3–5 days after plating. […] Cells exposed to medium alone are referred as controls.
Cell supernatants were collected into Eppendorff tubes containing a cocktail of protease inhibitors (5 units/ml aprotinin, […], […] and 10^−4M Phenylmethylsulfonylfluoride (PMSF, a protease inhibitor); Sigma, USA). The collected media were concentrated with Centricon tubes (Amicon, Beverly, Mass., USA) and kept frozen for α-APPs secretion determination. Equal amounts of protein (50–100 μg) were loaded and separated on 10% sodium dodecyl sulfate-polyacrylamide gel electrophoresis (SDS-PAGE). Followed by western blotting onto nitrocellulose membrane, blocked by fat-free milk, and probed for 24 hours at 4° C., with anti-Alzheimer's precursor protein, A4 monoclonal antibody 22C11 (0.25 μg/ml; Boehringer Mannheim, Germany). The nitrocellulose membranes were washed and incubated for 2 hours at room temperature with peroxidase-linked goat anti-mouse IgG antibodies (Jackson Immunoresearch, USA), followed by extensive washout and staining with enhanced chemiluminescence detection system (Amersham). Quantitative evaluation of the immunoreactive bands, on the exposed films, was performed by video-imaging densitometry (Gel-aid software; Galai Co., Israel). APPs levels were expressed as x-fold increase over basal levels.

[6] = tested on: trihexyphenidyl rats; assay: Passive avoidance in trihexyphenidyl-treated rats; format: in vivo, Wistar rats; conditions: 24 h
From the text: Trihexyphenidyl is a selective M1 muscarinic antagonist that crosses the blood brain barrier and induces memory and learning impairments (Bymaster et al. J Pharmacol Exp Ther 267: 16–24, 1993. Roldan et al Neurosci. Lett. 230: 93–96, 1997; Kimura et al Brain Res. 834: 6–12, 1999).
Naive Wistar rats were used in the experiments below. The passive avoidance (PA) task is comprised of training (acquisition) phase and a retention phase. In the training procedure each rat was individually placed in the small illuminated compartment and after 60 sec. of familiarization/adaptation, the door to the large compartment was opened and the latency to enter was measured (Initial Latency). Immediately following entry into the dark compartment, the door was closed and inescapable foot shock (0.6 mA for 3 sec) was delivered through the grid floor. A cutoff point of 180 sec was used for initial latency. […] After the acquisition trial the rat was returned to its home cage. Retention of the passive avoidance task was measured 24 h later, by again placing the rat in the light compartment and after a 60 sec adaptation interval, the door was opened and the latency to re-enter the dark compartment was measured. A cutoff point of 300 sec was used for retention latency.

[7] = tested on: tau proteins; assay: tau phosphorylation, AT8 immunoblot; format: cell-based; conditions: 100 μM; to the control level
From the text: Following the experimental design of Sadot et al., J. Neurochem. […] By linking an M1 agonist to an antioxidant moiety tau phophorylation may be decreased, providing a new therapeutic strategy in a variety of CNS disease states due to combined damage due to oxidative stress and tau hyperphosphorylation.

[8] = tested on: ApoE; assay: ApoE synthesis and secretion in primary type 1 astrocytes; format: cell-based, rat; conditions: up to 96 hrs
Procedure: Primary cultures of type 1 astrocytes were derived from the cortex of Sprague Dawley rats. The compounds tested were dissolved in the culture media and added to cells for 24, 48, 72 and 96 hrs. Media was then removed and kept frozen until ApoE protein levels were evaluated by immunoblot analysis as described in Poirier et al Neuroscience 55: 81–90 (1993). Alternatively the methods of Cedazo-Minuez et al [Neurosci 105: 651–661, 2001} may be employed.

CCC1SC2(CCN(C)CC2)N(CCc2c[nH]c3ccccc23)C1=O (stereo not drawn) [AF703, 2-Ethyl-4-[2-(1H-indol-3-yl)-ethyl]-8-methyl-1-thia-4,8-diaza-spiro[4.5]decan-3-one]
Protection against β-A25-35-induced cytotoxicity [1]: more effective than carbachol and AF267B

CN1CCCC1c1cccnc1 (stereo not drawn) [nicotine, reference compound]
Training, escape latency [2]: no improving effect
Training, path length [2]: no significant effect
Reversal test, escape latency [2]: no significant effect
Training, swimming speed [2]: Neither rivastigmine nor nicotine had any significant effect
Transfer test, spatial bias [2]: partial spatial bias
Training, escape latency ([3]; 0.5 and 1 mg/kg i.p. (rivastigmine, nicotine 1 mg/kg)): degraded the performance
Reversal test, escape latency [3]: no significant effect
Training, path length [3]: no significant effect
Reversal test, swimming speed [3]: significantly decreased
Training, swimming speed [3]: significantly decreased the swimming speed

CC[C@@H]1SC2(CCN(C)CC2)N(S(=O)(=O)c2ccc(F)cc2)C1=O [AF700, (S)-2-Ethyl-4-(4-fluoro-benzenesulfonyl)-8-methyl-1-thia-4,8-diaza-spiro[4.5]decan-3-one]
Neurotrophic effect [4]: neurotrophic
Emax [5]: 50%
Protection against β-A25-35-induced cytotoxicity [1]: more effective than carbachol and AF267B

CCC1SC2(CCN(C)CC2)N(C(=O)CCc2c[nH]c3ccccc23)C1=O (racemic) [AF704, 2-Ethyl-4-(3-1H-indol-3-yl-propionyl)-8-methyl-1-thia-4,8-diaza-spiro[4.5]decan-3-one]
Retention latency ([6]; 0.1 mg/kg, po): 214.70 ± 36.63 s
Retention latency ([6]; 0.5 mg/kg p.o.): 283.50 ± 17.39 s
Retention latency ([6]; 1 mg/kg p.o.): 274.44 ± 26.97 s
Neurotrophic effect [4]: neurotrophic
Emax [5]: 50%
tau phosphorylation (AT8) [7]: induce dephosphorylation of tau proteins
Protection against β-A25-35-induced cytotoxicity [1]: more effective than carbachol and AF267B

CC1OC2(CS1)CN1CCC2CC1 (stereo not drawn) [AF102B, reference compound]
Retention latency ([6]; 1 mg/kg p.o.): 234.4 ± 35.3 s
ApoE production [8]: inactive

(S)-Ethyl-4-(3-1H-indol-3-yl-propionyl)-8-methyl-1-thia-4,8-diaza-spiro[4.5]decan-3-one [AF704B]
tau phosphorylation (AT8) [7]: induce dephosphorylation of tau proteins
Protection against β-A25-35-induced cytotoxicity [1]: more effective than carbachol and AF267B

CCC1SC2(CCN(C)CC2)NC1=O (racemic) [AF267, 2-ethyl-8-methyl-1-thia-4,8-diaza-spiro[4.5]decan-3-one]
α-APPs secretion, comparison in words [5]: AF267B is more efficacious and more potent than its racemate

CCN(C)C(=O)Oc1cccc([C@H](C)N(C)C)c1 [rivastigmine, reference compound]
Training, escape latency [2]: positively affected
Training, path length [2]: positively affected
Reversal test, escape latency [2]: no significant effect
Training, swimming speed [2]: Neither rivastigmine nor nicotine had any significant effect
Transfer test, spatial bias [2]: complete spatial bias
Reversal test, escape latency [3]: no significant effect
Training, path length [3]: neither AF267B nor rivastigmine had any effect
Reversal test, swimming speed [3]: significantly decreased
Training, swimming speed [3]: significantly decreased the swimming speed
α-APPs secretion, comparison in words [5]: not effective

— patent publication US7049321B2, “Methods and pharmaceutical compositions for treatment of central and peripheral nervous system disorders and compounds useful therefor” (Israel Institute for Biological Research, priority 2002, dated 2006)
